Where two headings read alike, the source gives them in different places.
Legend:
[1] = tested on: phosphorylation of CDK1 at Thr14 in HCC1806 cells; experiment: Cell lysate AlphaLISA assay measuring inhibition of phosphorylation of CDK1 Thr14; assay type: cell-based; details: read-out: Cellular IC50
How it was run: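 HCC1806 cells seeded overnight, then treated 4 h at 37 °C, 5% CO2 with compounds in DMSO; washed and lysed, lysates frozen overnight at −80 °C. CDK1 Thr14 phosphorylation read by AlphaLISA SureFire Ultra; data normalized to DMSO (0% inhibition) and 3 μM reference compound to give IC50.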

PKMYT1 = target: T1, PKMYT1 (Homo sapiens, UniProt Q99640); experiment: ADP-Glo PKMYT1 ATP-depletion assay; details: 50 nM PKMYT1, 13.3 nM CDK1, read-out: Biochemical IC50
T1 construct: PKMYT1 (93 kD, full length, N-terminal GST tag from Signal Chem); GST (N); purchased Signal Chem
T1 sequence (Q99640 1-499): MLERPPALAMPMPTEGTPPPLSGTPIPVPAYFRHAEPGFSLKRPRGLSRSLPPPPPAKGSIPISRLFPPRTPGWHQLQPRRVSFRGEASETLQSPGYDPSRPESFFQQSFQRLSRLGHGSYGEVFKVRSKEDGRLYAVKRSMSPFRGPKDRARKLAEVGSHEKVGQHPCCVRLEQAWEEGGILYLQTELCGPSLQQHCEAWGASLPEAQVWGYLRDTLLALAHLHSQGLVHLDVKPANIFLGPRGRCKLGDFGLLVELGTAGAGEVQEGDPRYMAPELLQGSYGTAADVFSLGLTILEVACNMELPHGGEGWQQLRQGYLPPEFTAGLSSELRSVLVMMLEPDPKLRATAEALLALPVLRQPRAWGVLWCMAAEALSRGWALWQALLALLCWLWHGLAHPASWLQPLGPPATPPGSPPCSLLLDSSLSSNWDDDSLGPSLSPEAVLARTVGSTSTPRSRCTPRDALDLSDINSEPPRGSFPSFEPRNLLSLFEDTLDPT
How it was run: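 Full-length N-terminal GST-tagged PKMYT1 (50 nM) with GST-CDK1 (13.3 nM) as substrate and 88 µM ATP, in Hepes buffer with MgCl2, MnCl2, DTT and BSA; DMSO <1%. Incubated 120 min at RT. ADP formed was quantified by ADP-Glo luminescence and used to derive biochemical IC50.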

IC50 ([1]; 4 hours) [µM] | IC50 (PKMYT1) [µM] | IC50 ([1]; Homo sapiens, HCC1806, 4 h) [µM] | SMILES
≥ 5 | 1 to 5 |  | Cc1c(O)cccc1-c1c(N)c(C(N)=O)nc2cccc(F)c12 (single isomer, unassigned) [Compound 58, (M)-3-amino-5-fluoro-4-(3-hydroxy-2-methylphenyl)quinoline-2-carboxamide]
1 to 5 | 0.05 to 0.5 |  | NC(=O)c1nc2cccnc2c(-c2cccc3[nH]nc(F)c23)c1N (atropisomer, axis not shown) [Compound 305]
0.05 to 0.5 | < 0.05 |  | Cc1c(O)cccc1-c1c(N)c(C(N)=O)nc2cccc(F)c12 (single isomer, unassigned) [Compound 57, (P)-3-Amino-5-fluoro-4-(3-hydroxy-2-methylphenyl)quinoline-2-carboxamide]
 | 0.5 to 1 | ≥ 5 | Cc1ccc(O)c(C)c1-c1cc(C(N)=O)cc2cccnc12 [Compound 60, 8-(3-Hydroxy-2,6-dimethyl-phenyl)quinoline-6-carboxamide]
 | 0.05 to 0.5 | 1 to 5 | Cc1c(O)cccc1-c1c(N)c(C(N)=O)nc2ccccc12 [Compound 18, 3-Amino-4-(3-hydroxy-2-methylphenyl)quinoline-2-carboxamide]
 | 0.05 to 0.5 | 0.05 to 0.5 | Cc1ccc(O)c(C)c1-c1c(N)c(C(N)=O)cc2cccnc12 [Compound 64, 7-Amino-8-(3-hydroxy-2,6-dimethylphenyl)quinoline-6-carboxamide]
1 to 5 | 0.5 to 1 |  | Cc1c(O)cccc1-c1c(N)c(C(N)=O)nc2cccnc12 (single isomer, unassigned) [Compound 5, (M)-3-amino-4-(3-hydroxy-2-methylphenyl)-1,5-naphthyridine-2-carboxamide]
≥ 5 | 0.5 to 1 |  | Cc1cc(O)c(C)c(-c2c(N)c(C(N)=O)nc3cccnc23)c1 (atropisomer, axis not shown) [Compound 286]
 | ≥ 5 | ≥ 5 | NC(=O)c1nc2cccnc2c(-c2cnc(N)cc2C(F)(F)F)c1N [Compound 183]
≥ 5 | 1 to 5 |  | Cc1cc(O)c(C)c(-c2c(N)c(C(N)=O)nc3cccnc23)c1 [Compound 291]
 | 0.05 to 0.5 | ≥ 5 | Cc1c(O)cccc1-c1c(N)c(C(N)=O)nc2c(=O)[nH]cnc12 [Compound 282]
 | < 0.05 | 0.05 to 0.5 | Cc1c(O)cccc1-c1c(N)c(C(N)=O)cc2nccnc12 [Compound 73, 7-Amino-8-(3-hydroxy-2-methyl-phenyl)quinoxaline-6-carboxamide]
 | < 0.05 | 0.05 to 0.5 | CCOc1ccc2nc(C(N)=O)c(N)c(-c3cccc(O)c3C)c2n1 [Compound 154]
 | 1 to 5 | ≥ 5 | Cc1c(O)cccc1-c1ccnc2nc(C(N)=O)c(N)cc12 [Compound 233]
0.05 to 0.5 | 0.05 to 0.5 |  | Cc1c(O)cccc1-c1c(N)c(C(N)=O)nc2cccc(C#N)c12 (atropisomer, axis not shown) [Compound 243]
≥ 5 | ≥ 5 |  | Cc1nc2cc(C(N)=O)c(N)c(-c3cccc(O)c3C)c2nc1C (single isomer, unassigned) [Compound 93, (M)-7-Amino-8-(3-hydroxy-2-methylphenyl)-2,3-dimethylquinoxaline-6-carboxamide]
 | ≥ 5 | ≥ 5 | Cc1c(CO)cccc1-c1c(N)c(C(N)=O)nc2cccnc12 [Compound 249]
≥ 5 | ≥ 5 |  | Cc1c(O)cccc1-c1c(N)c(C(N)=O)nc2cc(C(F)(F)F)ccc12 (atropisomer, axis not shown) [Compound 148]
0.05 to 0.5 | < 0.05 |  | Cc1cnc2cc(C(N)=O)c(N)c(-c3cccc(O)c3C)c2n1 (atropisomer, axis not shown) [Compound 168]
 | 0.05 to 0.5 | 1 to 5 | Cc1ccc2[nH]ncc2c1-c1c(N)c(C(N)=O)nc2cccnc12 [Compound 6, 3-amino-4-(5-methyl-1H-indazol-4-yl)-1,5-naphthyridine-2-carboxamide]
 | < 0.05 | < 0.05 | Cc1c(O)cccc1-c1c(N)c(C(N)=O)nc2cccc(C#N)c12 [Compound 129, 3-Amino-5-cyano-4-(3-hydroxy-2-methylphenyl)quinoline-2-carboxamide]
 | < 0.05 | 0.05 to 0.5 | Cc1c(O)cccc1-c1c(N)c(C(N)=O)cc2cccnc12 [Compound 61, 7-Amino-8-(3-hydroxy-2-methylphenyl)quinoline-6-carboxamide]
≥ 5 | ≥ 5 |  | Cc1cnc2c(-c3cccc(O)c3C)c(N)c(C(N)=O)cc2n1 (atropisomer, axis not shown) [Compound 201]
 | ≥ 5 | ≥ 5 | Cc1cc2c[nH]nc2cc1-c1c(N)c(C(N)=O)nc2cccnc12 [Compound 205]

Continued, compound first:

SMILES | IC50 ([1]; 4 hours) [µM] | IC50 (PKMYT1) [µM] | IC50 ([1]; Homo sapiens, HCC1806, 4 h) [µM]
Cc1ccc(O)c(C)c1-c1c(N)c(C(N)=O)nc2c(F)cccc12 (single isomer, unassigned) [Compound 38, (M)-3-Amino-8-fluoro-4-(3-hydroxy-2,6-dimethylphenyl) quinoline-2-carboxamide] | 0.05 to 0.5 | 0.05 to 0.5 | 
NC(=O)c1cc2nccnc2c(-c2ccc(F)c(O)c2)c1N [Compound 200] |  | 0.05 to 0.5 | ≥ 5
Cc1cnc2[nH]ncc2c1-c1c(N)c(C(N)=O)cc2nccnc12 [Compound 234] |  | ≥ 5 | ≥ 5
Cc1cc(O)cc(C)c1-c1cc(C(N)=O)cc2nccnc12 [Compound 131] |  | ≥ 5 | ≥ 5
COc1ccnc2c(-c3c(C)ccc(O)c3C)c(N)c(C(N)=O)cc12 [Compound 330] |  | < 0.05 | < 0.05
Cc1ccc(O)c(C)c1-c1c(N)c(C(N)=O)nc2ccc(C(F)(F)F)cc12 (single isomer, unassigned) [Compound 41, (P)-3-amino-4-(3-hydroxy-2,6-dimethylphenyl)-6-(trifluoromethyl)quinoline-2-carboxamide] | ≥ 5 | ≥ 5 | 
Cn1ccc(-c2cc(C(N)=O)cc3nccnc23)cc1=O [Compound 132] |  | ≥ 5 | ≥ 5
Cc1ccc(O)c(C)c1-c1c(N)c(C(N)=O)cc2nccnc12 (single isomer, unassigned) [Compound 83, (P)-7-Amino-8-(3-hydroxy-2,6-dimethylphenyl)quinoxaline-6-carboxamide] | 0.05 to 0.5 | < 0.05 | 
Cc1c(O)cccc1-c1c(N)c(C(N)=O)cc2nc(C)c(=O)n(C)c12 (atropisomer, axis not shown) [Compound 171] | 1 to 5 | 0.05 to 0.5 | 
Cc1c(O)cccc1-c1c(N)c(C(N)=O)cc2nc(N3CCOCC3)cnc12 [Compound 321] |  | < 0.05 | 0.5 to 1
COc1nc2c(-c3cccc(O)c3C)c(N)c(C(N)=O)cc2nc1C (atropisomer, axis not shown) [Compound 224] | ≥ 5 | 1 to 5 | 
Cc1c(-c2c(N)c(C(N)=O)cc3nccnc23)ccc2[nH]cnc12 [Compound 252] |  | ≥ 5 | ≥ 5
Cc1ccc2[nH]ncc2c1-c1c(N)c(C(N)=O)cc2cccnc12 [Compound 143] |  | 0.05 to 0.5 | 1 to 5
NC(=O)c1cc2nccnc2c(-c2ccc3ocnc3c2)c1N [Compound 178] |  | ≥ 5 | ≥ 5
Cc1ccc2[nH]ncc2c1-c1c(N)c(C(N)=O)cc2nccnc12 [Compound 77, 7-Amino-8-(5-methyl-1H-indazol-4-yl)quinoxaline-6-carboxamide] |  | 0.05 to 0.5 | 1 to 5
NC(=O)c1cc2nccnc2c(-c2cccn3cncc23)c1N [Compound 216] |  | 1 to 5 | ≥ 5
Cc1c(-c2c(N)c(C(N)=O)cc3nccnc23)ccc(F)c1O [Compound 227] |  | < 0.05 | 0.05 to 0.5
Cc1ccc(O)c(C)c1-c1c(N)c(C(N)=O)cc2nc(N3CCC4(COC4)C3)cnc12 [Compound 339] |  | 0.05 to 0.5 | 1 to 5
Cc1ccc(O)c(C)c1-c1c(N)c(C(N)=O)nc2c(F)cccc12 [Compound 25] |  | 0.05 to 0.5 | 1 to 5
Cc1c(-c2c(N)c(C(N)=O)cc3nccnc23)ccc(F)c1O (atropisomer, axis not shown) [Compound 307] | ≥ 5 | 1 to 5 | 
Cc1ccc(O)c(C)c1-c1c(N)c(C(N)=O)nc2ccc(Cl)cc12 (single isomer, unassigned) [Compound 54, (P)-3-amino-6-chloro-4-(3-hydroxy-2,6-dimethylphenyl)quinoline-2-carboxamide] | ≥ 5 | ≥ 5 | 
COc1cccc(-c2cc(C(N)=O)nc3c(C)ccc(C)c23)c1C [Compound 134] |  | ≥ 5 | ≥ 5
